This is an account of results in patent publication US5968980A, “1,3-dialkylurea derivative” (Santen Pharmaceutical Co., Ltd., priority 1994, dated 1999).

The experiment deals with T1, endopeptidase 24.11 (Rattus norvegicus, UniProt P07861).
T1 construct: A kidney was excised from a Wistar rat; from tissue; host or cells: Wistar rat kidney, crude membrane pellet suspended in HEPES buffer
T1 sequence (P07861 1-750): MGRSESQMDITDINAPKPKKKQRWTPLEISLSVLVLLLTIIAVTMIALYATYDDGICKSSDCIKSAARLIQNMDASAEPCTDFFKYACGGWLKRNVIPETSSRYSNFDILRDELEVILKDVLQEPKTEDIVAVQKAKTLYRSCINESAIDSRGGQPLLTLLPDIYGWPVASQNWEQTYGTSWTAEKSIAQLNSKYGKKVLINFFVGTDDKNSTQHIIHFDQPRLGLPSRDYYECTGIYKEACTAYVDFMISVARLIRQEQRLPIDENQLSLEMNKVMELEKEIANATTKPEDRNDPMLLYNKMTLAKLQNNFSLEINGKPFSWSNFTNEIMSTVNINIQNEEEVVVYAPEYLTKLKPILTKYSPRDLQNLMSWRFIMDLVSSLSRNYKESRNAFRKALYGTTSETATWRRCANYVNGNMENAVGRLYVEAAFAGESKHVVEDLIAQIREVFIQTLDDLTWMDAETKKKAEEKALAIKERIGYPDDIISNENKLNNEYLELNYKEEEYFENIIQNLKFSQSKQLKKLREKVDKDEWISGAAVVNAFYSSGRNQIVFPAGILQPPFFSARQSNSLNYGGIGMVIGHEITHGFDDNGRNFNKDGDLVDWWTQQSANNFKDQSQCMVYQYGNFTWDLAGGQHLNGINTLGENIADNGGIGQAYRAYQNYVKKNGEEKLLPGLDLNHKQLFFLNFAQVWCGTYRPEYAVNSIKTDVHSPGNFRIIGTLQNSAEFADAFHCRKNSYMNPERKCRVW
Kind of experiment: inhibition of endopeptidase 24.11 activity (DAGNPG cleavage, fluorescence, rat kidney enzyme preparation). Type of experiment: biochemical. The following applies: DAGNPG 50 μM, 37° C., 30 minutes, pH 7.4, rat kidney enzyme preparation; read-out: IC50 (concentration required to inhibit endopeptidase 24.11 by 50%). The text has this:
As a method for measuring endopeptidase 24.11 activity, Florentin et al. had reported a method for measuring the enzyme activity by a degree of cleavage of a peptide bond between glycine and p-nitrophenylalanine using N-dansyl-D-alanyl-glycyl-p-nitrophenylalanyl-glycine (DAGNPG) as a substrate (Anal. Biochem., 141, 62-69 (1984)). An effect of the present compounds on endopeptidase 24.11 was examined according to the method described in the literature.
An enzyme preparation used in this pharmacological test was prepared by extracting from a rat kidney by the following method according to the method of Malfloy et al. (J. Biol. Chem., 259, 14365-14370 (1984)).
A kidney was excised from a Wistar rat. The kidney was homogenized in Tris-hydrochloric acid buffer (5 mM, pH 7.4, containing 125 mM D-mannitol and 12 mM magnesium chloride). The homogenate was centrifuged at low speed (1,000×g) to give a supernatant. The supernatant was ultracentrifuged ([…]) for 120 minutes. The resulting pellet was suspended in Tris-hydrochloric acid buffer (2.5 mM, pH 7.4, containing 62.5 mM D-mannitol and 6 mM magnesium chloride). The suspension was centrifuged at low speed and then ultracentrifuged again. The resulting pellet was suspended in HEPES buffer (5 mM, pH 7.4) to give the enzyme preparation.
In order to examine the effect of the present compounds on the enzyme preparation, reactions were performed under the following condition using mixed solutions consisting of the composition shown in Table 1.
Enzyme preparation 0.3-0.5 μg protein
The above-mentioned solution (150 μl) was incubated at 37° C. for 30 minutes and then boiled at 100° C. for five minutes. To the solution was added 1.35 ml of Tris-hydrochloric acid buffer (50 mM, pH 7.4). The mixture was centrifuged at moderate speed (5,000×g) for five minutes to give a supernatant. Fluorescence intensity of the supernatant (excitation at 342 nm of wave length and emission at 562 nm) was measured.
The degree of the inhibitory effect of each test compound on the enzyme preparation is expressed by the inhibition rate calculated by the following equation. [formula]
A: fluorescence intensity of the sample in the absence of the test compound
B: fluorescence intensity of the sample in the presence of the test compound
On to `CC(C)CN(CC(CCc1ccccc1)C(=O)O)C(=O)N[C@@H](Cc1ccc(-c2ccccc2)cc1)C(=O)O` (mixture of isomers) [Compound No. 5-6, (2S)-3-(4-Biphenylyl)-2-[3-[(2RS)-2-carboxy-4-phenylbutyl]-3-isobutylureido]propionic acid], for which the IC50 worked out at 0.55 nM.
For the compound `CC(C)CCC(CN(CC(C)C)C(=O)N[C@@H](Cc1ccc(-c2ccccc2)cc1)C(=O)O)C(=O)O` (mixture of isomers) [Compound No. 7-3, (2S)-3-(4-Biphenylyl)-2-[3-[(2RS)-2-carboxy-5-methylhexyl]-3-isobutylureido]propionic acid], the IC50 was 4 nM.
In the case of `CC(C)CN(CC(CCc1ccccc1)C(=O)O)C(=O)N[C@@H](Cc1ccc2ccccc2c1)C(=O)O` (mixture of isomers) [Compound No. 7-6, (2S)-2-[3-[(2RS)-2-Carboxy-4-phenylbutyl]-3-isobutylureido]-3-(2-naphthyl)propionic acid] it was 3.1 nM; in that of `CC(C)CN(CC(OCc1ccccc1)C(=O)O)C(=O)N[C@@H](Cc1ccc(-c2ccccc2)cc1)C(=O)O` (single isomer, unassigned) [Compound No. 8-1, (2S)-2-[3-[(2S or 2R)-2-Benzyloxy-2-carboxyethyl]-3-isobutylureido]-3-(4-biphenylyl)propionic acid], 0.93 nM; in that of `CC(C)CN(CC(CCc1ccccc1)C(=O)O)C(=O)N[C@@H](Cc1ccc(-c2ccccc2)cc1)C(=O)O` (single isomer, unassigned) [Compound No. 9-1, (2S)-3-(4-Biphenylyl)-2-[3-[(2S or 2R)-2-carboxy-4-phenylbutyl]-3-isobutylureido]propionic acid], 0.58 nM.
As to `CC(C)CN(CC(CCc1ccccc1)C(=O)NO)C(=O)N[C@@H](Cc1ccc(-c2ccccc2)cc1)C(=O)O` (single isomer, unassigned) [Compound No. 10-1, (2S)-3-(4-Biphenylyl)-2-[3-[(2S or 2R)-2-hydroxycarbamoyl-4-phenylbutyl]-3-isobutylureido]propionic acid], the IC50 came to 2.1 nM.
`CC(C)CN(CCC(=O)O)C(=O)N[C@@H](Cc1ccc(-c2ccccc2)cc1)C(=O)O` [Compound No. 5-1, (2S)-3-(4-Biphenylyl)-2-[3-(2-carboxyethyl)-3-isobutylureido]propionic acid]: the IC50 came to 1.3 nM.
In the case of `CC(C)CN(CCC(=O)O)C(=O)N[C@@H](Cc1ccc2ccccc2c1)C(=O)O` [Compound No. 5-21, (2S)-2-[3-(2-Carboxyethyl)-3-isobutylureido]-3-(2-naphthyl)propionic acid] it was 9.3 nM.
